Common to all, as to assay: Antitumor bioactivity evaluation, breast cancer cells (ATPlite)
A general note: Cellular ATP, detected with luciferase, serves as a proxy for viable cell number.

The subject of one test is BT474. It is filed as cell-based. The settings on record: Homo sapiens, BT-474; test sample 5 μM, 72 hours; read-out: Inhibitory Rate % BT474. On the procedure:
(§1) Antitumor bioactivity evaluation of the compounds of Examples according to the method described below
(§2) Cells plating: a 100 mm culture dish with overgrown adherent cells was digested with 1 ml 0.25% trypsin (GIBCO) at 37° C. for 5 min, and the reaction was terminated with 2 ml culture medium (containing 10% FBS, GIBCO). The cells were scattered and collected, after counting, diluted to 1×10^5 cells/ml, and seeded into a 96-well plate at 50 μl/well, 5000 cells/well, excluding the peripheral circle of wells in which no cell was added, but PBS was added, 60 wells in total, and then incubated at 37° C. for 24 hours for adhering.
(§3) Addition of the compound and lapatinib: the test sample was diluted to a final concentration of 5 μM, and the culture medium with the corresponding compound solvent concentration was filled in the control well, the compound solvent concentration was kept consistent in each well, 5 parellel wells were set for each concentration, 25 μl each well, 25 μl culture medium (in combined group, 25 μl lapatinib was added till a final concentration of 1 μM) supplemented, followed by incubation at 37° C. for 72 hours.
(§4) Test after incubation at 37° C. for 72 hours: 50 μL of ATPlite kit substrate solution was added in each well, and vibrated for 3 min, followed by placing aside in darkness for 10 min, and then supernatant 100 μl/well was taken and placed on aluminescence test plate; the luminescence test plate that has been fully incubated was placed in a luminescence test instrument, to read luminescence value.
(§5) 1. Cell survival rate (%)=Experimental group RLU/control group RLU×100%. The experimental data were subjected to data analysis and processing by utilizing GraphPad software.

The test system of a further test is MDA-MB-361. Format: cell-based. To be noted: Homo sapiens, test sample 5 μM, 72 hours, read-out: Inhibitory Rate % MDA-MB-361. On the procedure:
as §1, §2, §3, §4, §5

A further test concerns MDA-MB-453. It is filed as cell-based. The settings on record: Homo sapiens, test sample 5 μM, 72 hours, read-out: Inhibitory Rate % MDA-MB-453. On the procedure:
as §1, §2, §3, §4, §5

Another test deals with SK-BR3. Format: cell-based. The settings on record: Homo sapiens, SK-BR-3; test sample 5 μM, 72 hours; read-out: Inhibitory Rate % SK-BR3. On the procedure: as §1, §2, §3, §4, §5
The next test has as its system SK/Lap^R1.0. Format: cell-based. To be noted: Homo sapiens; test sample 5 μM, 72 hours; read-out: Inhibitory Rate % SKLap^R1.0. On the procedure: as §1, §2, §3, §4, §5
Another test concerns BT/Lap^R1.0. It is filed as cell-based, human. To be noted: Homo sapiens; test sample 5 μM, 72 hours; read-out: Inhibitory Rate % BT/Lap^R1.0. The method, then:
as §1, §2, §3, §4, §5

For the compound `CN(Cc1cccc(Cl)c1)C1CCN(Cc2cnc(Cl)s2)CC1` [Example 18, N-methyl-N-(3-chlorobenzyl)-N-{1-[(2-chlorothiazol-5-yl)methyl]piperidin-4-yl}amine], the inhibition at 5 µM in the test on BT474 is 7.1%; with MDA-MB-361, 9.7%; with MDA-MB-453 it was 12.6%; in the test on SK-BR3, 15.5%; in the test on SK/Lap^R1.0, 8.5%; in the test with BT/Lap^R1.0, 8.4%.
For the compound `CN(Cc1c(F)cccc1Cl)C1CCN(Cc2cnc(Cl)s2)CC1` [Example 19, N-methyl-N-(2-fluoro-6-chlorobenzyl)-N-{[1-(2-chlorothiazol-5-yl)methyl]piperidin-4-yl}amine], the inhibition at 5 µM in the test with BT474 worked out at 10.6%; in the test with MDA-MB-361, 10.4%; with MDA-MB-453, 22.4%; in the test on SK-BR3, 9.8%; in the test with SK/Lap^R1.0, 1.5%; with BT/Lap^R1.0, 3.2%.
Turning to `CN(Cc1ccc(Cl)cc1Cl)C1CCN(Cc2cnc(Cl)s2)CC1` [Example 20, N-methyl-N-(2,4-dichlorobenzyl)-N-{[1-(2-chlorothiazol-5-yl)methyl]piperidin-4-yl}amine], the inhibition at 5 µM came to 64.1% in the test on BT474; 30.1% with MDA-MB-361; 60.8% in the test with MDA-MB-453; 47.1% in the test on SK-BR3; 11.4% with SK/Lap^R1.0; 61.8% in the test on BT/Lap^R1.0.
Consider `Cc1ccccc1CN(C)C1CCN(Cc2cnc(Cl)s2)CC1` [Example 21, N-methyl-N-(2-methylbenzyl)-N-{[1-(2-chlorothiazol-5-yl)methyl]piperidin-4-yl}amine], for which the inhibition at 5 µM with BT474 came out at 1.5%; with MDA-MB-361 it was 4.4%; in the test on MDA-MB-453, 3.5%; in the test with SK-BR3, 9.7%; in the test on SK/Lap^R1.0, 5.1%; in the test with BT/Lap^R1.0 it was 4%.
In the case of `Cc1ccc(CN(C)C2CCN(Cc3cnc(Cl)s3)CC2)cc1` [Example 22, N-methyl-N-(4-methylbenzyl)-N-{[1-(2-chlorothiazol-5-yl)methyl]piperidin-4-yl}amine], the inhibition at 5 µM in the test with BT474 worked out at 14.2%; in the test on MDA-MB-361 it was 10.9%; in the test with MDA-MB-453, 29.6%; in the test on SK-BR3 it was 26.2%; in the test with SK/Lap^R1.0, 8.4%; in the test with BT/Lap^R1.0, 16%.
For `CN(Cc1cccc(F)c1)C1CCN(Cc2cnc(Cl)s2)CC1` [Example 23, N-methyl-N-(3-fluorobenzyl)-N-{[1-(2-chlorothiazol-5-yl)methyl]piperidin-4-yl}amine], the inhibition at 5 µM with BT474 was 2.4%; in the test with MDA-MB-361 it was 3.2%; in the test on MDA-MB-453, 4.4%; in the test with SK-BR3 it was 4.2%; in the test with SK/Lap^R1.0 it was 1.3%; with BT/Lap^R1.0, 5.7%.
In the case of `CN(Cc1c(Cl)cccc1Cl)C1CCN(Cc2cnc(Cl)s2)CC1` [Example 24, N-methyl-N-(2,6-dichlorobenzyl)-N-{[1-(2-chlorothiazol-5-yl)methyl]piperidin-4-yl}amine], the inhibition at 5 µM amounted to 11.1% in the test with BT474; 10.2% with MDA-MB-361; 21.1% in the test on MDA-MB-453; 19% with SK-BR3; 8.5% in the test with SK/Lap^R1.0; 7.1% in the test with BT/Lap^R1.0.
On to `CSc1ncc(CN2CCC(N(C)Cc3ccccc3C)CC2)s1` [Example 25, N-methyl-N-(2-methylbenzyl)-N-{[1-(2-methylthiothiazol-5-yl)methyl]piperidin-4-yl}amine], for which the inhibition at 5 µM was 15.5% in the test on BT474; 31.7% in the test with MDA-MB-361; 35.1% with MDA-MB-453; 21.9% in the test on SK-BR3; 6.9% in the test with SK/Lap^R1.0; 1.4% in the test with BT/Lap^R1.0.
Consider `CSc1ncc(CN2CCC(N(C)Cc3ccc(C)cc3)CC2)s1` [Example 26, N-methyl-N-(4-methylbenzyl)-N-{[1-(2-methylthiothiazol-5-yl)methyl]piperidin-4-yl}amine], for which the inhibition at 5 µM in the test with BT474 is 68.3%; with MDA-MB-361, 38.3%; with MDA-MB-453 it was 67.1%; in the test with SK-BR3, 49.6%; with SK/Lap^R1.0, 12.1%; with BT/Lap^R1.0, 66.7%.
As to `CSc1ncc(CN2CCC(N(C)Cc3cccc(F)c3)CC2)s1` [Example 27, N-methyl-N-(3-fluorobenzyl)-N-{[1-(2-methylthiothiazol-5-yl)methyl]piperidin-4-yl}amine], the inhibition at 5 µM in the test on BT474 turned out to be 26.3%; in the test with MDA-MB-361, 31.7%; in the test on MDA-MB-453, 44.2%; with SK-BR3 it was 19.5%; in the test with SK/Lap^R1.0, 2.1%; in the test on BT/Lap^R1.0, 19.8%.
In the case of `CSc1ncc(CN2CCC(N(C)Cc3cccc(Cl)c3)CC2)s1` [Example 28, N-methyl-N-(3-chlorobenzyl)-N-{1-[(2-methylthiothiazol-5-yl)methyl]piperidin-4-yl}amine], the inhibition at 5 µM in the test with BT474 is 44.9%; with MDA-MB-361, 31.1%; with MDA-MB-453, 62.3%; with SK-BR3, 26.7%; with SK/Lap^R1.0 it was 7.3%; in the test on BT/Lap^R1.0, 36.1%.
For `CSc1ncc(CN2CCC(N(C)Cc3ccc(F)cc3)CC2)s1` [Example 29, N-methyl-N-(4-fluorobenzyl)-N-{1-[(2-methylthiothiazol-5-yl)methyl]piperidin-4-yl}amine], the inhibition at 5 µM in the test on BT474 amounted to 54.4%; in the test with MDA-MB-361, 32.8%; with MDA-MB-453, 67.4%; in the test with SK-BR3 it was 40.9%; in the test on SK/Lap^R1.0 it was 11.7%; in the test with BT/Lap^R1.0, 50.5%.
With `CSc1ncc(CN2CCC(N(C)Cc3ccc(Cl)c(Cl)c3)CC2)s1` [Example 30, N-methyl-N-(3,4-dichlorobenzyl)-N-{1-[(2-methylthiothiazol-5-yl)methyl]piperidin-4-yl}amine], the inhibition at 5 µM in the test on BT474 was 62.6%; in the test on MDA-MB-361 it was 42.1%; with MDA-MB-453, 69.9%; in the test with SK-BR3, 42.4%; in the test with SK/Lap^R1.0, 10.1%; in the test on BT/Lap^R1.0, 67.1%.
As to `CSc1ncc(CN2CCC(N(C)Cc3c(F)cccc3Cl)CC2)s1` [Example 31, N-methyl-N-(2-fluoro-6-chlorobenzyl)-N-{1-[(2-methylthiothiazol-5-yl)methyl]piperidin-4-yl}amine], the inhibition at 5 µM with BT474 was found to be 49.5%; with MDA-MB-361 it was 47.2%; in the test on MDA-MB-453, 65.3%; in the test with SK-BR3, 9.2%; in the test with SK/Lap^R1.0, 4.5%; in the test with BT/Lap^R1.0 it was 59.9%.
For `CSc1ncc(CN2CCC(N(C)Cc3c(Cl)cccc3Cl)CC2)s1` [Example 32, N-methyl-N-(2,6-dichlorobenzyl)-N-{1-[(2-methylthiothiazol-5-yl)methyl]piperidin-4-yl}amine], the inhibition at 5 µM in the test on BT474 worked out at 54.9%; with MDA-MB-361, 45.2%; in the test on MDA-MB-453 it was 63.7%; in the test with SK-BR3, 24.3%; in the test with SK/Lap^R1.0 it was 26.8%; with BT/Lap^R1.0 it was 54.9%.

These data come from US10023565B2, “N,N′ substituted piperidinamine compounds, and preparation method and usage thereof” (Institute of Pharmacology and Toxicology Academy of …, priority 2013, dated 2018).
